# Legend:
# Assay in all cases: Test B preemergence/postemergence greenhouse plant response rating 0 to 10
# cotton = assay type: in vivo, Gossypium hirsutum; settings: for Plant response rating, Cotton: 0 to 10 scale
# Summary of the method: (§1)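 Test chemicals, dissolved in a non-phytotoxic solvent, were applied to soil at planting and, at the same time, over foliage of seedlings at the one to four leaf stage.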
# lambsquarters = assay type: in vivo, Chenopodium album; settings: for Plant response rating, Lambsquarter: 0 to 10 scale; for Plant response rating (0 to 10 scale), Lambsquarter: Rate 100 g/ha
# Summary of the method: as §1
# rice = assay type: in vivo, Oryza sativa; settings: for Plant response rating, Rice: 0 to 10 scale; for Plant response rating (0 to 10 scale), Rice: Rate 100 g/ha
# Summary of the method: as §1
# wild oat = assay type: in vivo, Avena fatua; settings: for Plant response rating, Wild oat: 0 to 10 scale; for Plant response rating (0 to 10 scale), Wild oat: Rate 100 g/ha
# Summary of the method: as §1
# wheat = assay type: in vivo, Triticum aestivum; settings: for Plant response rating, Wheat: 0 to 10 scale; for Plant response rating (0 to 10 scale), Wheat: Rate 100 g/ha
# Summary of the method: as §1
# corn = assay type: in vivo, Zea mays; settings: for Plant response rating, Corn: 0 to 10 scale
# Summary of the method: as §1
# cheatgrass = assay type: in vivo, Bromus secalinus; settings: for Plant response rating, Cheatgrass: 0 to 10 scale
# Summary of the method: as §1
smiles,measurement,setting,value
Clc1ccc(-c2nc3n(c2Br)CCCC3)c(Cl)c1 [Compound 2],"Plant response rating (0 to 10 scale), Cotton","cotton; POSTEMERGENCE, Rate 50 g/ha",9
same,"Plant response rating (0 to 10 scale), Cotton","cotton; POSTEMERGENCE, Rate 100 g/ha",10
same,"Plant response rating, Cotton","cotton; POSTEMERGENCE, Rate 200 g/ha",9
same,"Plant response rating, Cotton","cotton; POSTEMERGENCE, Rate 400 g/ha",10
same,"Plant response rating, Cotton","cotton; PREEMERGENCE, Rate 50 g/ha",0
same,"Plant response rating (0 to 10 scale), Cotton","cotton; PREEMERGENCE, Rate 100 g/ha",0
same,"Plant response rating, Cotton","cotton; PREEMERGENCE, Rate 400 g/ha",2
same,"Plant response rating, Cotton","cotton; Rate 200 g/ha, PREEMERGENCE",0
same,"Plant response rating, Lambsquarter","lambsquarters; POSTEMERGENCE, Rate 50 g/ha",9
same,"Plant response rating (0 to 10 scale), Lambsquarter",lambsquarters; POSTEMERGENCE,9
same,"Plant response rating, Lambsquarter","lambsquarters; POSTEMERGENCE, Rate 200 g/ha",9
same,"Plant response rating, Lambsquarter","lambsquarters; POSTEMERGENCE, Rate 400 g/ha",9
same,"Plant response rating, Lambsquarter","lambsquarters; PREEMERGENCE, Rate 50 g/ha",0
same,"Plant response rating (0 to 10 scale), Lambsquarter",lambsquarters; PREEMERGENCE,0
same,"Plant response rating, Lambsquarter","lambsquarters; Rate 200 g/ha, PREEMERGENCE",6
same,"Plant response rating, Rice","rice; POSTEMERGENCE, Rate 50 g/ha",3
same,"Plant response rating (0 to 10 scale), Rice",rice; POSTEMERGENCE,4
same,"Plant response rating, Rice","rice; POSTEMERGENCE, Rate 200 g/ha",4
same,"Plant response rating, Rice","rice; POSTEMERGENCE, Rate 400 g/ha",4
same,"Plant response rating, Rice","rice; PREEMERGENCE, Rate 50 g/ha",0
same,"Plant response rating (0 to 10 scale), Rice",rice; PREEMERGENCE,0
same,"Plant response rating, Rice","rice; PREEMERGENCE, Rate 400 g/ha",0
same,"Plant response rating, Rice","rice; Rate 200 g/ha, PREEMERGENCE",0
same,"Plant response rating, Wild oat","wild oat; POSTEMERGENCE, Rate 50 g/ha",2
same,"Plant response rating (0 to 10 scale), Wild oat",wild oat; POSTEMERGENCE,2
same,"Plant response rating, Wild oat","wild oat; POSTEMERGENCE, Rate 200 g/ha",3
same,"Plant response rating, Wild oat","wild oat; POSTEMERGENCE, Rate 400 g/ha",3
same,"Plant response rating (0 to 10 scale), Wild oat",wild oat; PREEMERGENCE,0
same,"Plant response rating, Wild oat","wild oat; PREEMERGENCE, Rate 400 g/ha",0
same,"Plant response rating, Wild oat","wild oat; Rate 200 g/ha, PREEMERGENCE",0
same,"Plant response rating, Wheat","wheat; POSTEMERGENCE, Rate 50 g/ha",1
same,"Plant response rating (0 to 10 scale), Wheat",wheat; POSTEMERGENCE,2
same,"Plant response rating, Wheat","wheat; POSTEMERGENCE, Rate 200 g/ha",2
same,"Plant response rating, Wheat","wheat; POSTEMERGENCE, Rate 400 g/ha",2
same,"Plant response rating, Wheat","wheat; PREEMERGENCE, Rate 50 g/ha",0
same,"Plant response rating (0 to 10 scale), Wheat",wheat; PREEMERGENCE,0
same,"Plant response rating, Wheat","wheat; PREEMERGENCE, Rate 400 g/ha",0
same,"Plant response rating, Wheat","wheat; Rate 200 g/ha, PREEMERGENCE",0
same,"Plant response rating (0 to 10 scale), Corn","corn; POSTEMERGENCE, Rate 50 g/ha",3
same,"Plant response rating (0 to 10 scale), Corn","corn; POSTEMERGENCE, Rate 100 g/ha",3
same,"Plant response rating, Corn","corn; POSTEMERGENCE, Rate 200 g/ha",4
same,"Plant response rating, Corn","corn; POSTEMERGENCE, Rate 400 g/ha",4
same,"Plant response rating, Corn","corn; PREEMERGENCE, Rate 50 g/ha",0
same,"Plant response rating (0 to 10 scale), Corn","corn; PREEMERGENCE, Rate 100 g/ha",0
same,"Plant response rating, Corn","corn; PREEMERGENCE, Rate 400 g/ha",0
same,"Plant response rating, Corn","corn; Rate 200 g/ha, PREEMERGENCE",0
same,"Plant response rating (0 to 10 scale), Cheatgrass","cheatgrass; POSTEMERGENCE, Rate 50 g/ha",2
same,"Plant response rating (0 to 10 scale), Cheatgrass","cheatgrass; POSTEMERGENCE, Rate 100 g/ha",2
same,"Plant response rating, Cheatgrass","cheatgrass; POSTEMERGENCE, Rate 200 g/ha",3
same,"Plant response rating, Cheatgrass","cheatgrass; POSTEMERGENCE, Rate 400 g/ha",4
same,"Plant response rating, Cheatgrass","cheatgrass; PREEMERGENCE, Rate 50 g/ha",0
same,"Plant response rating (0 to 10 scale), Cheatgrass","cheatgrass; PREEMERGENCE, Rate 100 g/ha",0
same,"Plant response rating, Cheatgrass","cheatgrass; PREEMERGENCE, Rate 400 g/ha",0
same,"Plant response rating, Cheatgrass","cheatgrass; Rate 200 g/ha, PREEMERGENCE",0
Fc1cc(Cl)c(OCc2ccccc2)cc1-c1nn2c(c1Cl)CCCC2 [Compound 22],"Plant response rating (0 to 10 scale), Cotton","cotton; POSTEMERGENCE, Rate 50 g/ha",10
same,"Plant response rating, Cotton","cotton; POSTEMERGENCE, Rate 200 g/ha",10
same,"Plant response rating, Cotton","cotton; PREEMERGENCE, Rate 50 g/ha",2
same,"Plant response rating, Cotton","cotton; Rate 200 g/ha, PREEMERGENCE",4
same,"Plant response rating, Lambsquarter","lambsquarters; POSTEMERGENCE, Rate 50 g/ha",8
same,"Plant response rating, Lambsquarter","lambsquarters; POSTEMERGENCE, Rate 200 g/ha",10
same,"Plant response rating, Lambsquarter","lambsquarters; PREEMERGENCE, Rate 50 g/ha",6
same,"Plant response rating, Lambsquarter","lambsquarters; Rate 200 g/ha, PREEMERGENCE",9
same,"Plant response rating, Rice","rice; POSTEMERGENCE, Rate 50 g/ha",4
same,"Plant response rating, Rice","rice; POSTEMERGENCE, Rate 200 g/ha",5
same,"Plant response rating, Rice","rice; PREEMERGENCE, Rate 50 g/ha",0
same,"Plant response rating, Rice","rice; Rate 200 g/ha, PREEMERGENCE",2
same,"Plant response rating, Wild oat","wild oat; POSTEMERGENCE, Rate 50 g/ha",3
same,"Plant response rating, Wild oat","wild oat; POSTEMERGENCE, Rate 200 g/ha",3
same,"Plant response rating, Wild oat","wild oat; Rate 200 g/ha, PREEMERGENCE",1
same,"Plant response rating, Wheat","wheat; POSTEMERGENCE, Rate 50 g/ha",3
same,"Plant response rating, Wheat","wheat; POSTEMERGENCE, Rate 200 g/ha",4
same,"Plant response rating, Wheat","wheat; PREEMERGENCE, Rate 50 g/ha",0
same,"Plant response rating, Wheat","wheat; Rate 200 g/ha, PREEMERGENCE",1
same,"Plant response rating (0 to 10 scale), Corn","corn; POSTEMERGENCE, Rate 50 g/ha",3
same,"Plant response rating, Corn","corn; POSTEMERGENCE, Rate 200 g/ha",4
same,"Plant response rating, Corn","corn; PREEMERGENCE, Rate 50 g/ha",2
same,"Plant response rating, Corn","corn; Rate 200 g/ha, PREEMERGENCE",4
same,"Plant response rating (0 to 10 scale), Cheatgrass","cheatgrass; POSTEMERGENCE, Rate 50 g/ha",3
same,"Plant response rating, Cheatgrass","cheatgrass; POSTEMERGENCE, Rate 200 g/ha",4
same,"Plant response rating, Cheatgrass","cheatgrass; PREEMERGENCE, Rate 50 g/ha",0
same,"Plant response rating, Cheatgrass","cheatgrass; Rate 200 g/ha, PREEMERGENCE",3
Clc1ccc(-c2nc3n(c2Cl)CCC=C3)c(Cl)c1 [Compound 1],"Plant response rating (0 to 10 scale), Cotton","cotton; POSTEMERGENCE, Rate 50 g/ha",7
same,"Plant response rating, Cotton","cotton; POSTEMERGENCE, Rate 200 g/ha",8
same,"Plant response rating, Cotton","cotton; PREEMERGENCE, Rate 50 g/ha",0
same,"Plant response rating, Cotton","cotton; Rate 200 g/ha, PREEMERGENCE",0
same,"Plant response rating, Lambsquarter","lambsquarters; POSTEMERGENCE, Rate 50 g/ha",4
same,"Plant response rating, Lambsquarter","lambsquarters; POSTEMERGENCE, Rate 200 g/ha",7
same,"Plant response rating, Lambsquarter","lambsquarters; PREEMERGENCE, Rate 50 g/ha",0
same,"Plant response rating, Lambsquarter","lambsquarters; Rate 200 g/ha, PREEMERGENCE",0
same,"Plant response rating, Rice","rice; POSTEMERGENCE, Rate 50 g/ha",4
same,"Plant response rating, Rice","rice; POSTEMERGENCE, Rate 200 g/ha",3
same,"Plant response rating, Rice","rice; PREEMERGENCE, Rate 50 g/ha",0
same,"Plant response rating, Rice","rice; Rate 200 g/ha, PREEMERGENCE",0
same,"Plant response rating, Wild oat","wild oat; POSTEMERGENCE, Rate 50 g/ha",2
same,"Plant response rating, Wild oat","wild oat; POSTEMERGENCE, Rate 200 g/ha",2
same,"Plant response rating, Wild oat","wild oat; Rate 200 g/ha, PREEMERGENCE",0
same,"Plant response rating, Wheat","wheat; POSTEMERGENCE, Rate 50 g/ha",1
same,"Plant response rating, Wheat","wheat; POSTEMERGENCE, Rate 200 g/ha",2
same,"Plant response rating, Wheat","wheat; PREEMERGENCE, Rate 50 g/ha",0
same,"Plant response rating, Wheat","wheat; Rate 200 g/ha, PREEMERGENCE",0
same,"Plant response rating (0 to 10 scale), Corn","corn; POSTEMERGENCE, Rate 50 g/ha",2
same,"Plant response rating, Corn","corn; POSTEMERGENCE, Rate 200 g/ha",2
same,"Plant response rating, Corn","corn; PREEMERGENCE, Rate 50 g/ha",0
same,"Plant response rating, Corn","corn; Rate 200 g/ha, PREEMERGENCE",0
same,"Plant response rating (0 to 10 scale), Cheatgrass","cheatgrass; POSTEMERGENCE, Rate 50 g/ha",2
same,"Plant response rating, Cheatgrass","cheatgrass; POSTEMERGENCE, Rate 200 g/ha",2
same,"Plant response rating, Cheatgrass","cheatgrass; PREEMERGENCE, Rate 50 g/ha",0
same,"Plant response rating, Cheatgrass","cheatgrass; Rate 200 g/ha, PREEMERGENCE",0

# Source: patent US6358885B1, “Substituted phenylheterocyclic herbicides” (Mississippi State University, priority 1992, dated 2002)
